Data: US8420605B2, “Hydrogel compositions” (The University of Strathclyde, priority 2005, dated 2013)
Ends that are not written are not given here. * marks the point of attachment. Fmoc = O=C(OCC1c2ccccc2-c2ccccc21)*; Cbz = O=C(OCc1ccccc1)*

How the values were obtained:
[1] = Preparation of self-assembled peptide hydrogels by pH adjustment (gel formation); type: physicochemical; settings: for pH: pH at which the gel formed at the indicated concentrations (Table 3)
Experimental: Fmoc peptides (from BACHEM Ltd) were weighed out into 4 ml glass vials. 2 ml purified water was added followed by sonication for 30-60 seconds. 0.5M NaOH solution was added in 50 μl droplets until a clear solution was formed. 0.1M HCl was added to the solution by stepwise addition of 50 μl followed by mixing using a vortex. pH values were estimated by transferring a spatula tip of hydrogel onto universal indicator paper.
Self-assembled scaffolds were prepared by first suspending the Fmoc-dipeptide in purified water. Upon increase of the pH by addition of concentrated NaOH (thus de-protonating the carboxylic acid group) to a value of >8, a clear solution was obtained. To this solution, concentrated hydrochloric acid was added drop wise until the pH of the solution became 7, at which point a clear, self-supporting gel was formed.
Table 3 below identifies various peptide derivatives (incorporating an aromatic stacking ligand) and mixtures thereof that formed gels at a pH of 6-8 at the indicated concentrations: […]

[2] = as above; type: physicochemical
[3] = Hydrogel formation from Fmoc-amino acid/di-peptide combinations (tripeptides); type: physicochemical; settings: Fmoc-AA + di-peptide combination
From the text: The inventors thought it would be sensible to retain the two consecutive phenylalanine residues in the peptide, but introduce a third amino acid immediately after the Fmoc cap and before the Phe-Phe. […] In addition, the inventors also made the tripeptide: Fmoc-Leu-Leu-Leu.

[4] = Xu et al., J. Am. Chem. Soc. 2003, 125, 13680; cited from earlier work

Row | Substance | pH [1] | Gel formed? [3] | pH value for gelation [4] | also measured
1 | Cbz-Leu-Leu-Leu-OH | 7 |  |  | Gel? ([1]; Component 1 5-20 mM/L, pH 7): ✓
2 | Cbz-Phe-Phe-OH | 6-8 |  |  | Gel? ([1]; Component 1 10-30 mM/L, pH 6-8): ✓
3 | Fmoc-Ala-Ala-OH | 3 |  |  | Gel? ([2]; Component 1 40 mM/L, pH 3): ✓
4 | Fmoc-Ala-Phe-Phe |  | ✓ |  | 
5 | Fmoc-D-Ala-D-Ala |  |  | 3 | 
6 | Fmoc-Gly-D-Ala |  |  | 5 | 
7 | Fmoc-Gly-Gly-OH | 3-5 |  | 3 | Gel? ([2]; Component 1 10-40 mM/L, pH 3-5): ✓
8 | Fmoc-Gly-L-SER |  |  | 5 | 
9 | Fmoc-L-Ala-L-Ala |  |  | 3 | 
10 | Fmoc-Leu-Gly-OH | 2 |  |  | Gel? ([2]; Component 1 20 mM/L, pH 2): ✓
11 | Fmoc-Leu-Leu-Leu |  | ✓ |  | 
12 | Fmoc-Leu-Phe-Phe |  | ✓ |  | 
13 | Fmoc-Phe-Gly-OH | 3-5 |  |  | Gel? ([2]; Component 1 20 mM/L, pH 3-5): ✓
14 | Fmoc-Phe-Phe-Phe-OH | 7 | ✓ |  | Gel? ([1]; Component 1 5-20 mM/L, pH 7): ✓
15 | Fmoc-Val-Phe-Phe |  | ✓ |  | 
